# Results from BindingDB's records for doi:10.1007/s12154-010-0040-8 (Svims University, 2010).
# Target: T1, UDP-N-acetylmuramoylalanine--D-glutamate ligase (Leptospira interrogans serogroup Icterohaemorrhagiae serovar Lai (strain 56601), UniProt Q8F7V4)
# T1 sequence (Q8F7V4 whole entry): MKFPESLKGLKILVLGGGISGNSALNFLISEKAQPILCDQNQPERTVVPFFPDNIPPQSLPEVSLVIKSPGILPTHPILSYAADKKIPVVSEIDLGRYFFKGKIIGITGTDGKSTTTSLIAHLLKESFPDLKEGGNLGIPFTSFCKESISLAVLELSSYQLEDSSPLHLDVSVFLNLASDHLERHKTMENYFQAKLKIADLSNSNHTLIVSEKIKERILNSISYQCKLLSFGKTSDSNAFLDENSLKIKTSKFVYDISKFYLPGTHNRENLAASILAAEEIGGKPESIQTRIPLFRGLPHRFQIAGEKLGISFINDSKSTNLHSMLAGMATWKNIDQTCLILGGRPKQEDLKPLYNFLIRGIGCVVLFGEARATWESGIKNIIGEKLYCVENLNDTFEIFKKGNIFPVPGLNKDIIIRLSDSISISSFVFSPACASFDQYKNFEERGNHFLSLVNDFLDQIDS
# Test: Inhibition Assay
# Excerpt: Inhibiton assay using MurgD.
row,IC50,SMILES
1,95 µM,C[C@@H](NC(=O)C=Cc1ccc2c(c1)OCO2)P(=O)(O)CC(CCC(=O)O)C(=O)O (stereo partly drawn) [Phosphinate inhibitor 1]
2,78 µM,C[C@H](NS(=O)(=O)Cc1ccc([N+](=O)[O-])cc1)C(=O)N[C@@H](C)P(=O)(O)CC(CCC(=O)O)C(=O)O (stereo partly drawn) [Phosphinate inhibitor 2]

row,SMILES,IC50
1,"O=C(O)c1cc(C(=O)O)cc(-c2ccc(/C=C3\SC(=S)N(c4ccc5c(c4)OCO5)C3=O)o2)c1 [Benzene 1,3-dicarvboxylic acid inhibitor]",270 µM
